Reference: patent US12187716B2, “TYK2 kinase inhibitors” (SAREUM LIMITED, priority 2018, dated 2025)
pIC50: −log10 of the molar value.

What was measured:
pSTAT3 in HT29 cells = experiment: pSTAT3 inhibition in response to IL-22 stimulation in serum starved HT29 cells; assay type: cell-based; conditions: for inhibition at 10 µM: HT-29, HT29 cells, 10 ng/ml human IL-22, 10 μM compound; for pIC50: Homo sapiens, HT-29, HT29 cells, 10 ng/ml human IL-22
Description: HT29 cells were serum starved overnight before the four test compounds were diluted to generate a 9-point semi-log dose dilution with a top concentration of 10 μM, plus vehicle control. HT29 cells were incubated with the test compounds for 20 min at 37° C. HT29 cells were incubated for a further 15 min with 10 ng/ml human IL-22 before cells were fixed with 4% PFA for 10 min, and 90% methanol for 30 min before being labelled with a phospho-STAT3Y705 antibody (CST #9145). Cells were rinsed three times using 0.5% BSA/PBS solution before being incubated with Alexa-488 anti-rabbit secondary antibodies.
Mean fluorescence intensity of phospho-STAT3 in single cells was analysed by flow cytometry using an Intellicyt iQue instrument and FlowJo software. The IC50 was determined using a four-parameter analysis following removal of background signal and normalisation to the DMSO control.

[1] = Hepatocyte stability assay, rat; assay type: in vitro ADME; conditions: male, Sprague-Dawley, pooled hepatocytes, 37° C.
Description: (§1) Test and control compounds were incubated with hepatocytes at 37° C. Aliquots were removed at 6 timepoints over a one hour period. Samples were centrifuged and the supernatant fractions analysed for parent compound by mass spectrometry (LC-MS/MS).
(§2) The amount of compound remaining (expressed as %) was determined from the MS response in each sample relative to that in the T=0 samples, and used to determine the half-life and intrinsic clearance of the compound.

[2] = Hepatocyte stability assay, mouse; assay type: in vitro ADME; conditions: male, CD-1, pooled hepatocytes, 37° C.
Description: as §1, §2

TYK2 = TYK2 (Homo sapiens, UniProt P29597); experiment: TYK2 kinase inhibition assay (33P-ATP filter binding, Reaction Biology)
hERG potassium channel = biological target: T1, hERG potassium channel (Homo sapiens, UniProt Q12809); experiment: hERG channel inhibition assay (hERG-HEK cells, Sophion Qube); assay type: cell-based; conditions: for pIC50: hERG-HEK cells, tail current, room temperature; for inhibition at 30 uM: human, hERG-HEK stably transfected cell line, Max Conc. 30 uM
T1 construct: expressed in transfected cells; host or cells: hERG-HEK stably transfected cell line
Description: The potential for compounds to inhibit the hERG potassium channel was determined using a hERG-HEK stably transfected cell line on the Sophion Qube automated electrophysiology platform. The assay was performed at room temperature and recordings of the hERG tail current from individual cells was made using single-hole QChips.
The potency (IC50) of test compounds to inhibit the hERG channel was determined from a concentration-response curve generated from 8 test compound concentrations with up to 4 replicates per concentration.
The compound concentration was added to the test well twice to ensure complete exchange of the external buffer with the test compound. In total, compound was applied to the well for >7 minutes.

JAK1 = JAK1 (Homo sapiens, UniProt P23458); experiment: JAK1 kinase inhibition assay (33P-ATP filter binding, Reaction Biology)
JAK3 = JAK3 (Homo sapiens, UniProt P52333); experiment: JAK3 kinase inhibition assay (33P-ATP filter binding, Reaction Biology)
CYP2B6 = biological target: T2, CYP2B6 (Homo sapiens, UniProt P20813); experiment: Cytochrome P450 inhibition assay, CYP2B6; assay type: in vitro ADME; conditions: pooled human liver microsomes, probe Bupropion
T2 construct: from tissue; host or cells: pooled human liver microsomes
T2 sequence (P20813 1-491): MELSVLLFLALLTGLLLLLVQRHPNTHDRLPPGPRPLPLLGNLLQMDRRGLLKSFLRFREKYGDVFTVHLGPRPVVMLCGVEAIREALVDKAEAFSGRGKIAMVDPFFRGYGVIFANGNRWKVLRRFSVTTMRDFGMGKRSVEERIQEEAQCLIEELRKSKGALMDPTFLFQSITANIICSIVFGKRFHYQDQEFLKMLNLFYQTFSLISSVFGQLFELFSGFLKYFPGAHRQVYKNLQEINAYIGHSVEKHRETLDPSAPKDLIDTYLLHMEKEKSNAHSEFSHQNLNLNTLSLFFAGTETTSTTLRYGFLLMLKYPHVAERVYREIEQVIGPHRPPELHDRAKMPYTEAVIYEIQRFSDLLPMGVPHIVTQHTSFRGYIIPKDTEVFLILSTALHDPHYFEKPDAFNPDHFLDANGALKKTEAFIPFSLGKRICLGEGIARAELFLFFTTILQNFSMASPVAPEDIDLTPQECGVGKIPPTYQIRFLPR
Description: (§3) The susceptibility of Compounds (2) and (3) to potential drug-drug interactions was tested by assaying their abilities to inhibit various cytochrome P450 isoforms. Prior art Compound B (see Example 3 above) was also tested as a comparative example. Test compounds, prepared and serially diluted in DMSO, were incubated at six concentrations (1% DMSO final) with pooled human liver microsomes in the presence of probe substrate for each isoform, and their effects on the metabolism of probe substrates determined. Incubations (in 96-well plates) were carried out at 37° C. in 0.1 M Tris buffer, pH 7.4, with reactions initiated by the addition of cofactor, NADPH (1 mM final concentration). At the specified times, reactions were terminated with acetonitrile containing an analytical internal standard, samples were centrifuged and the supernatant fractions were analysed for probe substrate metabolites by mass spectrometry (LC-MS/MS). The instrument responses were normalised to internal standard and compared to the appropriate solvent controls to determine the amount of metabolite formed from the probe substrates relative to these “uninhibited” controls. […] [table]

CYP2C8 = biological target: T3, CYP2C8 (Homo sapiens, UniProt P10632); experiment: Cytochrome P450 inhibition assay, CYP2C8; assay type: in vitro ADME; conditions: pooled human liver microsomes, probe Amodiaquine
T3 construct: from tissue; host or cells: pooled human liver microsomes
T3 sequence (P10632 1-490): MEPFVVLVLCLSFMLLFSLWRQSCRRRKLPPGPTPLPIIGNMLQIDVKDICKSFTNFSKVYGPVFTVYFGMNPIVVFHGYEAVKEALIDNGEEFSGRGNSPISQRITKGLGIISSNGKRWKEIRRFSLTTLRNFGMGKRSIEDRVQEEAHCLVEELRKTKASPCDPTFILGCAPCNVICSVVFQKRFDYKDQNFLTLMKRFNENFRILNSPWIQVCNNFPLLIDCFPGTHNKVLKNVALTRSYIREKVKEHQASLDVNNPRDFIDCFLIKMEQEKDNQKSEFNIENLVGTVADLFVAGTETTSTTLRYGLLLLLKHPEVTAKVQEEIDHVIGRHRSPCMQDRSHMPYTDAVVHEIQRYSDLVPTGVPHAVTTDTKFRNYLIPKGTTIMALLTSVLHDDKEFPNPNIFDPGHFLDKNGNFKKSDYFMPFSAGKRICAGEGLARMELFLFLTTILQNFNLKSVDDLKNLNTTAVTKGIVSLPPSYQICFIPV
Description: as §3

Sequence of JAK1 (P23458 866-1154): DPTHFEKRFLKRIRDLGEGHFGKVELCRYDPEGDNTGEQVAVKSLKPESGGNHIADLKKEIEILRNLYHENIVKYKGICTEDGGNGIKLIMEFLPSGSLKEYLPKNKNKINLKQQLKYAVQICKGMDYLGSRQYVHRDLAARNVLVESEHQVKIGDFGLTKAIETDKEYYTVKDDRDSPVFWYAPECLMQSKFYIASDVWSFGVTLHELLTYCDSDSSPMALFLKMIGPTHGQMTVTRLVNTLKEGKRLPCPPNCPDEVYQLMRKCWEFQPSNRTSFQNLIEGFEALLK
Sequence of JAK3 (P52333 781-1124): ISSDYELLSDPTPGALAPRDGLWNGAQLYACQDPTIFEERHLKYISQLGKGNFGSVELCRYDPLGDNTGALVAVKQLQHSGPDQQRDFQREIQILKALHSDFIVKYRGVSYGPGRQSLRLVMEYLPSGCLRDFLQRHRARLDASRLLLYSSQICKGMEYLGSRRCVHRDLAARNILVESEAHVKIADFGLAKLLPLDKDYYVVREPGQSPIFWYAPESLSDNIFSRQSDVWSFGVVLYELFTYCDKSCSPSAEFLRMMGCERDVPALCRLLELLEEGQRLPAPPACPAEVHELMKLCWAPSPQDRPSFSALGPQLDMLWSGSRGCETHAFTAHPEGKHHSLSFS
T1 sequence (Q12809 whole entry): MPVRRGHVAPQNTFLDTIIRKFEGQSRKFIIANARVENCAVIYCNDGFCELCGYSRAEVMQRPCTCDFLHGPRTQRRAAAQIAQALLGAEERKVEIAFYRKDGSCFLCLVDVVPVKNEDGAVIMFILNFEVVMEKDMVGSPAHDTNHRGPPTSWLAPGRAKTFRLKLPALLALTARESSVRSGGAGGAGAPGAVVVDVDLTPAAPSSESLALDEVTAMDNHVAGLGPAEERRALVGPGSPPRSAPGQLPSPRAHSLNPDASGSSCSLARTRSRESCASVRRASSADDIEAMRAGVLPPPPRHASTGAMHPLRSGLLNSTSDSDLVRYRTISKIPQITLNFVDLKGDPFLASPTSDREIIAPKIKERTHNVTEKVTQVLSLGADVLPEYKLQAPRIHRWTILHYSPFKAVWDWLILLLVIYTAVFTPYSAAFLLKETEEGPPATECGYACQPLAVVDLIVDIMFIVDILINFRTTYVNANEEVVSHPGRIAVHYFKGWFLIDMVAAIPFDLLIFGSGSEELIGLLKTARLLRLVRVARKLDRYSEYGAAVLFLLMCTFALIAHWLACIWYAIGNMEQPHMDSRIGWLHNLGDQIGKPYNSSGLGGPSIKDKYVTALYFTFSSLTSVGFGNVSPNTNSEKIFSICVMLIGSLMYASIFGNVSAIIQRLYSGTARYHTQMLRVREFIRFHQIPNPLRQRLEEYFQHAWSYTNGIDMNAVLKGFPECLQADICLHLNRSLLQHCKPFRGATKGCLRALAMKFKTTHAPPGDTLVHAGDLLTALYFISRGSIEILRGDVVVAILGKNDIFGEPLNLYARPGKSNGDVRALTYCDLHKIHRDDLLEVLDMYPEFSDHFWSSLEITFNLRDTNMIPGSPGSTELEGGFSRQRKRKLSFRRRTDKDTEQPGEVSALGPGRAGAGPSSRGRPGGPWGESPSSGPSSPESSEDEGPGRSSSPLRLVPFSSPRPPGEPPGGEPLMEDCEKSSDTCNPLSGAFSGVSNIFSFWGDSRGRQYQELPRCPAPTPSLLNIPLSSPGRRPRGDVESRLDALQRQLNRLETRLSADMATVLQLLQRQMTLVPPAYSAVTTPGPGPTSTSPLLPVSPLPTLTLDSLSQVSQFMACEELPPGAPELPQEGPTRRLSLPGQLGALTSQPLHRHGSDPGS
Sequence of TYK2 (P29597 833-1187): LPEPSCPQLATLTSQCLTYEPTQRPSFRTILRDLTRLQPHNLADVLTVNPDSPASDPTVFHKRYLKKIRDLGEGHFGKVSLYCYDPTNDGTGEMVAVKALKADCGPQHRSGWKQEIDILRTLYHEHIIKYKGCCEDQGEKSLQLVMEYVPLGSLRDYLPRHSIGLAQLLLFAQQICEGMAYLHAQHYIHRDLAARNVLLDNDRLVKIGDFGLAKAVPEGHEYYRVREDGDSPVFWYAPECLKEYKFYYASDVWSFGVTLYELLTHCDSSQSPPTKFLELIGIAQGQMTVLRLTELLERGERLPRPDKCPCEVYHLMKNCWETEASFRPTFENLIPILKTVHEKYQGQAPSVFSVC

| SMILES | inhibition at 10 µM (pSTAT3 in HT29 cells) [%] | hepatocyte CLint [1] [µL/min/1e6 cells] | hepatocyte CLint [2] [µL/min/1e6 cells] | pIC50 (TYK2) | pIC50 (hERG potassium channel) | inhibition at 30 uM (hERG potassium channel) [%] | pIC50 (JAK1) | pIC50 (JAK3) | pIC50 (CYP2B6) | pIC50 (CYP2C8) | pIC50 (pSTAT3 in HT29 cells) | half-life ([1]; read-out: Rat T1/2) [min] | half-life ([2]; read-out: Mouse T1/2) [min] | Selectivity v TYK2: TYK2 (TYK2; ratio of IC50 to TYK2 IC50) | Selectivity v TYK2: JAK1 (JAK1; ratio of JAK1 IC50 to TYK2 IC50) | selectivity for TYK2 compared to JAK3 (JAK3; biochemical assays) [fold] | Selectivity v TYK2: JAK3 (JAK3; ratio of JAK3 IC50 to TYK2 IC50) |
| --- | --- | --- | --- | --- | --- | --- | --- | --- | --- | --- | --- | --- | --- | --- | --- | --- | --- |
| NC(=O)c1nc(-c2c(Cl)cccc2Cl)oc1Nc1ccc(C(=O)N2CCS(=O)(=O)CC2)cc1 [Compound (2)] | 95.9 | 50 | 16.8 | 8.72 | < 4.52 | 38.6 | 7.70 | 6.67 | < 4.52 | < 4.52 | – | – | – | – | – | – | – |
| NC(=O)c1nc(-c2c(Cl)cccc2Cl)oc1Nc1ccc(C(=O)N2CCOCC2)cc1 [Comparative Compound B, 2-(2,6-dichloro-phenyl)-5-[4-(morpholine-4-carbonyl)-phenylamino]-oxazole-4-carboxylic acid amide, reference compound] | 97.9 | 104 | 40.5 | 8.29 | ~4.52 | 50.5 | 7.59 | 6.57 | < 4.52 | < 5.09 | > 7.00 | – | – | – | – | – | – |
| NC(=O)c1nc(-c2c(Cl)cccc2Cl)oc1Nc1ccc(C(=O)N2CCS(=O)(=O)CC2)c(F)c1 [Compound (3)] | 95.9 | 53.8 | 28 | 8.33 | < 4.52 | 31.5 | 7.29 | 6.11 | < 4.52 | < 4.52 | 6.64 | 28.5 | 39.2 | 1 | 10.9 | ~164 | 164.3 |
